According to patent US10398751B2, “Pharmaceutical compositions of water soluble peptides with poor solubility in isotonic conditions and methods for their use” (STRONGBRIDGE IRELAND LIMITED, priority 2016, dated 2019):
≈ marks a conversion by molar mass, not a printed value.

What was measured:
in vivo = experiment: in vivo; parameters: species or system rats; conditions: HSD:Sprague Dawley SD, rat, sc, 3 mg/kg
Protocol: The lactic acid vehicle for use in the formulations as shown in Table 7 below was prepared as follows: Formulations for injection into rats were prepared as summarized in Table 8. Subject rats (mean weight of about 370 grams per subject) were injected according to the above dosing schedule in groups of 5 rats per treatment. Baseline tail bleed samples were drawn from the rats at 2 days prior to dosing. […] Blood samples were approximately 300 uL of whole blood collected in commercial K3 EDTA-coated tubes. Subject rats were also observed for injection site reactions for up to 5-7 days post-dosing. Blood samples were kept on ice following collection until the time of centrifugation. Blood samples were processed within 60 minutes from blood collection. Samples were centrifuged at 3000 G for 15 minutes in a refrigerated centrifuge (5° C.). Plasma was withdrawn from the tubes after centrifugation and placed into new, appropriately labeled tubes and stored at −65° C. to −80° C. until transfer. […] Veldoreotide acetate standard was serially diluted with methanol:water (1:9) and added to blank rat plasma to generate calibration standards and QC samples. The calibration samples were stored at −70° C. Frozen samples were then thawed to room temperature. Blank plasma and reagent blank (water) were also prepared. For each 100 uL aliquot of sample, calibrator or QC sample, 25 uL (˜100 ng/mL) of internal standard (octreotide acetate) in methanol:water (1:9) and 600 uL of acetonitrile:formic acid (99:1) were added and the samples vortex mixed for 30 seconds. Samples were diluted by mixing 20 uL of plasma sample with 180 uL of blank plasma and aliquotted at 100 uL prior to addition of the internal standard and acetonitrile:formic acid solutions. Samples were then centrifuged for 10 minutes at 14,000 rpm at 8° C. 450 uL of the upper (organic) layer was then transferred to evaporation tubes and evaporated under nitrogen at about 50° C. Samples were then reconstituted in 200 uL of reconstitution solution (water:acetonitrile:formic acid at 70:30:0.2). Samples were centrifuged for 10 minutes at 4000 rpm at 8° C. 160 uL of each sample was withdrawn and placed in an autosampler vial with conic glass insert and analyzed via LC-MS/MS. Veldoreotide acetate plasma concentrations were then plotted and analyzed using standard pharmacokinetic techniques.

[1] = Density, pH and surface tension of solutions (capillary method); type: physicochemical; conditions: DDW, 25° C., baseline 64.9 dyne/cm
Protocol: Tween 80 was used as a control surfactant for comparison. Densities were measured on 1 mL fixed volume samples. […] The effect of veldoreotide acetate on the pH of double distilled water (DDW) was the same at all veldoreotide acetate concentrations. The pH of DDW of 5.0 was reduced to pH 4.5. The effect of veldoreotide acetate on the density of DDW (starting density of DDW was 1.003 g/ml) was concentration dependent from 1.4 mg/ml to 21.5 mg/ml with density ranging from 0.986 to 0.998 g/ml respectively. However, at veldoreotide acetate concentrations of 45 and 102 mg/ml the density was increased above the starting density of DDW. […] The effect of veldoreotide acetate on the surface tension of DDW (starting surface tension was 64.9 dyne/cm) was consistent with veldoreotide acetate behaving as a peptide amphiphile (surfactant). The surface tension of DDW was reduced by veldoreotide acetate at maximum from 64.9 to 45 dyne/cm. In order to elucidate the meaning of this effect, Tween 80 was used as a reference surfactant. Other surfactants include Polexamer 188. The reduction of surface tension induced by Tween 80 was in the range of 40% (from 64.9 dyne/cm to about 39 dyne/cm), in comparison to veldoreotide acetate of 30% (from 64.9 dyne/cm to about 45 dyne/cm). Note that, under these experimental conditions; the effect of Tween 80 indicated a concentration-effect relationship. Whereas, the effect of veldoreotide acetate on the reduction of surface tension was at the same range for all concentrations tested.
The data of table 4 show the surface activity of highly concentrated COR005 acetate (200 mg/ml), with or without additives in WFI, which emulates the preparation conditions of the primary emulsion of the microspheres. The results of Test 1 and 2 (Table 4) show the effect of COR005 acetate on the surface tension of water. When COR005 acetate is dissolved in water the surface tension is reduced by about 36%, from 68.5 dyne/cm for the water alone to 44 dyne/cm for the solution of water with CR005 acetate at 200 mg/ml.

[2] = Solubility of COR005 acetate in aqueous media with additives at 25° C.; type: physicochemical; conditions: isotonic 5% dextrose in water, 5% Dextrose Isotonic; additives none; read-out: Solubility of COR005 Acetate (mg/ml) at 25° C.
Excerpt: Table 3 summarizes the solubility values of COR005 acetate in various aqueous media, the effects of additives such as DEX and HPB on the peptide solubility in saline and physiological conditions, as well as the PK profile of IR and MS formulations prepared with these additives in comparison to COR005 without additives as control.
Note that both media (PBS or Saline) contained physiological concentrations of chloride which indicates the incompatibility and salting out of the peptide in the presence of the chloride ion.
The relatively high solubility of COR005 acetate in 5% dextrose (in water) of greater than 500 mg/ml indicates the improved solubility of the peptide in water with dextrose. […] Note that this 1:1 diluted dextrose in saline was used as a vehicle in the IR study of COR005 acetate in rats and minipigs (the DEX:PEP ratio was 5:1).

[3] = Solubility and surface activity in PBS under physiological conditions (37° C.); type: physicochemical; conditions: COR005 10 mg/ml; for Surface tension (dyne/cm) / Effect of surface tension (% of baseline): PBS pH 7.4, 37° C.; for solubility: PBS, pH 7.4, PBS pH 7.4, 37° C.
Protocol: Table 6 summarizes the effects of additives on the surface activity profile of COR005 acetate under physiological conditions (37° C.) that emulate the release of COR005 at the injection site.

SMILES: C[C@@H](O)[C@@H]1NC(=O)[C@H](CCCCN)NC(=O)[C@@H](Cc2c[nH]c3ccccc23)NC(=O)[C@H](Cc2c[nH]c3ccccc23)NC(=O)[C@H](Cc2ccccc2)NC(=O)CCCNC(=O)CCCN(CC(N)=O)C(=O)[C@H](Cc2ccccc2)NC1=O [Veldoreotide, cyclo(-γ-aminobutyryl-L-phenylalanyl-L-tryptophanyl-D-tryptophanyl-L-lysyl-L-threonyl-L-phenylalanyl-N-carbamoylmethyl-γ-aminobutyryl)]
- Cmax (in vivo; Rats Cmax (ng/ml)): 544 ng/mL
- Cmax (in vivo; pH 4, Rats Cmax (ng/ml)): 345 ng/mL
- reduction of surface tension of water [1]: more than 30%
- solubility [2]: > 500 mg/mL
- Surface tension (dyne/cm) ([3]; Dextrose 5 wt %): 49 dyne/cm
- Effect of surface tension (% of baseline) ([3]; Dextrose 5 wt %, at 48 h): (−18% at 48 h)
- Effect of surface tension (% of baseline) ([3]; Dextrose 5 wt %, baseline PBS/5% DEX): −14%
- Surface tension (dyne/cm) ([3]; HPB:PEP 1:2): 45 dyne/cm
- Effect of surface tension (% of baseline) ([3]; HPB:PEP 1:2, baseline PBS): −6%
- Effect of surface tension (% of baseline) ([3]; HPB:PEP 1:4, baseline PBS): −19%
- Surface tension (dyne/cm) ([3]; HPB:PEP 10:1): 50 dyne/cm
- Effect of surface tension (% of baseline) ([3]; HPB:PEP 10:1, baseline PBS): +4%
- Effect of surface tension (% of baseline) ([3]; no additive, baseline PBS): −29%
- solubility ([3]; Dextrose 5 wt %): 3300 µg/mL (≈ 2.94 mM)
- solubility ([3]; HPB:PEP 1:2): 5000 µg/mL (≈ 4.45 mM)
- solubility ([3]; HPB:PEP 1:4): 3900 µg/mL (≈ 3.47 mM)
- solubility ([3]; HPB:PEP 10:1): 8900 µg/mL (≈ 7.92 mM)
- solubility ([3]; no additive): 3600 µg/mL (≈ 3.2 mM)
